According to patent publication US20230391871A1, “MONOAMINE OXIDASE BLOCKADE THERAPY FOR TREATING CANCER THROUGH REGULATING TUMOR ASSOCIATED MACROPHAGES (TAMS)” (THE REGENTS OF THE UNIVERSITY OF CALIFORNIA, priority 2020, published 2023):

Key:
[1] = system: Maoa WT and Maoa KO BMDMs; experiment: Maoa WT and Maoa KO BMDM IL-4/IL-13 polarization with H2O2 or tyramine supplement; assay type: cell-based, mouse
Text: MAO-A breaks down monoamines and generates hydrogen peroxide (H2O2) as a byproduct, thereby increasing reactive oxygen species (ROS) levels in a TAM. b,c, Studying the in vivo ROS levels in TAMs isolated from Mao WT and Mao KO mice bearing B16-OVA tumours (n=4). (b) Experimental design. (c) FACS analyses of ROS levels in Maoa WT and Maoa KO TAMs at day 18. TAMs were gated as the CD45.2^+CD11b^+Ly6G^−Ly6C^−/lowF4/80^+ cells of total tumour-infiltrating immune cells (TIIs). d, FACS analyses of ROS levels in in vitro-cultured Maoa WT and Maoa KO BMDMs, […] IL-4/IL-13 polarization for 24 hours (n=4). NC, no cytokine-treated control BMDMs: IL-4/IL-13, IL-4/IL-13-polarized BMDMs. e-g, Studying the phenotype of IL-4/IL-13-polarized Maoa WT and Maoa KO BMDMs with or without H2O2 treatment (n=3). BMDMs were treated with H2O2 for 30 minutes prior to IL-4/IL-13 polarization for 24 hours. (e) FACS analyses of CD206 expression on BMDMs. (f,g) QPCR analyses of Chi313 (f) and Arg1 (g) mRNA expression in BMDMs. h-j, Studying the phenotype of IL-4/IL-13-polarized Maoa WT and Maoa KO BMDMs with or without tyramine supplement (n=3). BMDMs were treated with tyramine for 30 minutes prior to IL-4/IL-13 polarization for 24 hours. (h) FACS analyses of ROS levels in BMDMs. (i,j) QPCR analyses of Chi3/3 (i) and Arg1 (j) mRNA expression in BMDMs. k,l, Studying the in vivo Stat6 signaling in TAMs isolated from Mao WT and Mao KO mice bearing B16-OVA tumours (combined from 5 mice per group). (k) Experimental design. (l) Western blot analyses of Stat6 phosphorylation in TAMs at day 18. TAMs were FACS sorted as the DAPI^−CD45.2^+CD11b^+Ly6G^−Ly6C^−/lowF4/80^+ cells from total TIIs. m, Western blot analyses of JAK-Stat6 signaling in in vitro-cultured Maoa WT and Maoa KO BMDMs, with or without IL-4/IL-13 polarization and H2O2 treatment. BMDMs were treated with H2O2 for 30 minutes prior to IL-4/IL-13 stimulation for another 30 minutes. Representative of 3 experiments. All data are presented as the mean±SEM. ns, not significant, *P<0.05, **P<0.01, and ***P<0.001, by 2-way ANOVA (d-j) or by Student's t test (c).
[…] BMDMs (denoted as WT and KO, respectively) were treated with H2O2 for 30 minutes followed by IL-4/IL-13 stimulation for another 30 minutes. BMDMs were then collected for FACS analysis. N=4. a, FACS plots showing ROS levels in the indicated BMDMs. b, Quantification of A. Representative of 2 experiments. All data are presented as the mean±SEM. ns, not significant, ***P<0.001, by 2-way ANOVA (b).
(§1) To generate BMDMs, BM cells were collected from femurs and tibias of Maoa WT mice and Maoa KO mice, and were cultured in C10 medium containing with 20% of L929-conditional medium in a 10-cm dish (2×10^6 cells per ml: 12 ml per dish) for 6 days. At day 6, the resulting BMDMs were collected and reseeded in a 6-well plate (1×10^6 cells per ml: 2 ml per well) in C10 medium for 24 hours, in the presence or absence of recombinant murine IL-4 (10 ng/ml) (Peprotech, 200-04) and IL-13 (10 ng/ml) (Peprotech, 200-13) to induce BMDM immunosuppressive polarization.
In some experiments, H2O2 (100 μM) were added to the Maoa WT and Maoa KO BMDM polarization culture 30 minutes prior to adding recombinant murine IL-4 and IL-13. At 30 minutes after IL-4/IL-13 stimulation, BMDMs were collected for WB analysis: at 24 hours after IL-4/IL-13 stimulation, BMDMs were collected for flow cytometry and QPCR analysis.
In some experiments, tyramine (100 μM) (Sigma-Aldrich, T90344) were added to the Maoa WT and Maoa KO BMDM polarization culture 30 minutes prior to adding recombinant murine IL-4 and IL-13. At 24 hours after IL-4/IL-13 stimulation, BMDMs were collected for flow cytometry and QPCR analysis.

[2] = system: wildtype BMDMs (bone marrow-derived macrophages); experiment: In vitro WT BMDM IL-4/IL-13-induced polarization culture with MAOI treatment; assay type: cell-based, mouse; settings: IL-4/IL-13-stimulated WT BMDMs, 24 h
Experimental: (a) Experimental design. Wildtype BMDMs were stimulated with IL-4/IL-13 with or without MAOI treatment. MAOIs (monoamine oxidase inhibitors) studied were phenelzine (Phe: 20 μM), clorgyline (Clo: 20 μM), moclobemide (Moc: 200 μM), and pirlindole (Pir: 20 μM). NT, no MAOI treatment. (b) FACS analyses of ROS levels in BMDMs. (c) FACS analyses of CD206 expression on BMDMs. (d,e) QPCR analyses of Chi313 (d) and Arg1 (e) mRNA expression in BMDMs. f-j, Studying the TAM-related cancer immunotherapy potential of MAOI treatment in a B16-OVA melanoma syngeneic mouse tumour model (n=7-8). (f) Experimental design. B6 wildtype mice were treated with clodronate liposomes (Clod) to serve as TAM-depleted experimental mice, or treated with vehicle liposomes (Veh) to serve as TAM-intact control mice. Phe, phenelzine treatment: NT, no phenelzine treatment. (g) Tumour growth. (h) Tumour volume at day 18. (i) FACS analyses of CD206 expression on TAMs of TAM-intact experimental mice. (j) FACS analyses of intracellular Granzyme B production in tumour-infiltrating CD8^+ T cells of all experimental mice. k-o, Studying the cancer therapy potential of MAOI treatment in combination with anti-PD-1 treatment in the B16-OVA melanoma and MC38 colon cancer syngeneic mouse tumour models (n=5). (k) Experimental design. Tumour-bearing mice were treated with anti-PD-1 antibody (aPD-1) or isotype control (Iso), together with or without phenelzine (Phe) treatment. NT, no Phe treatment. (l) B16-OVA tumour growth. (m) B16-OVA tumour volume at day 18. (n) MC38 tumour growth. (o) MC38 tumour volume at day 27. Representative of 3 experiments. All data are presented as the mean±SEM. ns, not significant, *P<0.05, **P<0.01, and ***P<0.001, by I-way ANOVA (b-e, h, j, m, o) or by Student's t test (i).
as §1
In some experiments, MAOIs were added to the Maoa WT BMDM polarization culture 30 minutes prior to adding recombinant murine IL-4 and IL-13, to block MAO-A activity during BMDM polarization. MAOIs studied were phenelzine (Phe, 20 μM) (Sigma-Aldrich), clorgyline (Clo, 20 μM) (Sigma-Aldrich), moclobemide (Moc, 200 μM) (Sigma-Aldrich), and pirlindole (Pir, 20 μM) (R&D Systems). At 24 hours after IL-4/IL-13 stimulation, BMDMs were collected for analysis.
Cells were stained with surface marker antibodies, washed with PBS, then resuspended in pre-warmed PBS (1×10^6 cells/ml/tube) containing 1 μM CM-H2DCFDA (Thermo Fisher Scientific, C6827). After 15 minutes incubation at room temperature, cells were immediately washed with cold PBS followed by flow cytometry analysis. ROS levels were measured by oxidation of the CM-H2DCFDA probes that can be read out as the fluorescence intensity at the FITC/488 channel of a flow cytometer. Single cell RNA sequencing (scRNAseq) scRNASeq was used to analyze the gene expression profiles of TIIs. B16-OVA tumours were harvested from Maoa WT and Maoa KO mice to prepare TII suspensions (10 tumours were combined for each group). TII suspensions were then sorted using a FACSAria II flow cytometer to purify immune cells (gated as DAPI-CD45.2^+ cells). Sorted TIIs were immediately delivered to the Technology Center for Genomics & Bioinformatics (TCGB) facility at UCLA for library construction and sequencing.

[3] = IL-4/IL-13-stimulated Maoa WT and KO BMDMs, H2O2 100 μM, 24 h
[4] = MAOI 20 μM added 30 min before cytokines
[5] = Maoa KO BMDMs, tyramine 100 μM, 30 min before IL-4/IL-13, 24 h
[6] = Maoa WT BMDMs, tyramine 100 μM, 30 min before IL-4/IL-13, 24 h

OO [H2O2, hydrogen peroxide]
JAK-Stat6 signaling (JAK1, JAK2, JAK3, Stat6 phosphorylation, Western blot) ([1]; IL-4/IL-13-stimulated Maoa WT and KO BMDMs, H2O2 100 μM, 30 min stimulation, to similar levels): increased | Maoa WT vs KO difference in Arg1 expression [1, 3]: eliminated their differences | Maoa WT vs KO difference in CD206 expression [1, 3]: eliminated their differences | Maoa WT vs KO difference in Chi313 expression [1, 3]: eliminated their differences | intracellular ROS in BMDMs ([1]; IL-4/IL-13-stimulated Maoa WT and KO BMDMs, H2O2 100 μM, to similar levels): elevated

Cc1ccc2c(c1)c1c3n2CCNC3CCC1 (centres unmarked) [pirlindole]
ROS levels in BMDMs (FACS) [2, 4]: efficiently reduced | Arg1 mRNA expression in BMDMs (QPCR) ([2]; MAOI 20 μM): decreased expression | CD206 expression on BMDMs (FACS) ([2]; MAOI 20 μM): decreased expression | Chi313 mRNA expression in BMDMs (QPCR) ([2]; MAOI 20 μM): decreased expression | immunosuppressive polarization of BMDMs ([2]; MAOI 20 μM): suppressed

O=C(NCCN1CCOCC1)c1ccc(Cl)cc1 [mocolobemide, moclobemide]
ROS levels in BMDMs (FACS) ([2]; MAOI 200 μM added 30 min before cytokines): efficiently reduced | Arg1 mRNA expression in BMDMs (QPCR) ([2]; MAOI 200 μM): decreased expression | CD206 expression on BMDMs (FACS) ([2]; MAOI 200 μM): decreased expression | Chi313 mRNA expression in BMDMs (QPCR) ([2]; MAOI 200 μM): decreased expression | immunosuppressive polarization of BMDMs ([2]; MAOI 200 μM): suppressed

C#CCN(C)CCCOc1ccc(Cl)cc1Cl [clorgyline]
ROS levels in BMDMs (FACS) [2, 4]: efficiently reduced | Arg1 mRNA expression in BMDMs (QPCR) ([2]; MAOI 20 μM): decreased expression | CD206 expression on BMDMs (FACS) ([2]; MAOI 20 μM): decreased expression | Chi313 mRNA expression in BMDMs (QPCR) ([2]; MAOI 20 μM): decreased expression | immunosuppressive polarization of BMDMs ([2]; MAOI 20 μM): suppressed

NCCc1ccc(O)cc1 [tyramine]
increase of ROS levels in BMDMs [1, 5]: not | upregulation of Arg1 mRNA expression in BMDMs [1, 5]: not | upregulation of Chi313 mRNA expression in BMDMs [1, 5]: not | Arg1 mRNA expression in BMDMs [1, 6]: upregulated | Chi313 mRNA expression in BMDMs [1, 6]: upregulated | ROS levels in BMDMs [1, 6]: increased
